Target: T1, human MRGPRX2 (Homo sapiens, UniProt Q96LB1)
T1 construct: expressed in transfected cells; host or cells: CHO cells, stably transfected (G418 and Hygromycin B selection)
T1 sequence (Q96LB1 1-330): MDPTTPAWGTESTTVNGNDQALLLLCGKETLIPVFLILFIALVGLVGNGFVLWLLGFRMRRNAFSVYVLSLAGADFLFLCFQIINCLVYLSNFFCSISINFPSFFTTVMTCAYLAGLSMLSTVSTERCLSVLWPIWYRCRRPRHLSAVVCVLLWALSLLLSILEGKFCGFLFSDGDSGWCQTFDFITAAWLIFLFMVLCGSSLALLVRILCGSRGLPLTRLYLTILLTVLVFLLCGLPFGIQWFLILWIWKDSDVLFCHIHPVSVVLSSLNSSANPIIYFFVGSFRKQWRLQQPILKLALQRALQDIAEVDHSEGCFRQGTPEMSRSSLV
Assay: MRGPRX2 activity: IP-One Gq HTRF assay in CHO cells, antagonism versus 0.3 uM Cortistatin-14
Type: cell-based
Conditions: versus 0.3 uM Cortistatin-14 agonist, CHO cells expressing human MRGPRX2, read-out: MRGPRX2 Antagonist Activity
Procedure, shortened: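 Antagonist IC50 was derived from the HTRF IP-1 signal after co-addition of compounds (10 points, top 30 uM, 3-fold steps) and 0.3 μM Cortistatin-14 agonist to human MRGPRX2-expressing CHO cells. Assay buffer contained 50 mM LiCl, pH 8; plates sat 1 h at 37 °C, then 1 h at room temperature.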

SMILES | IC50 [nM]
O=S1(=O)N=C(NCc2ccccc2F)Nc2c1ccc(F)c2Oc1ccccc1Cl [Compound 1-2, 5-(2-chlorophenoxy)-6-fluoro-3-((2-fluorobenzyl)amino)-4H-benzo[e][1,2,4]thiadiazine 1,1-dioxide] | < 100
O=S1(=O)N=C(NCc2ncccc2F)Nc2c1ccc(F)c2Cc1ccccc1Cl [Compound 4-1, 5-(2-chlorobenzyl)-6-fluoro-3-(((3-fluoropyridin-2-yl)methyl)amino)-4H-benzo[e][1,2,4]thiadiazine 1,1-dioxide] | < 100
O=S1(=O)N=C(NCc2ncccc2F)Nc2c1ccc(F)c2Oc1c(Cl)ccc2ccccc12 [Compound 1-34, 5-((2-chloronaphthalen-1-yl)oxy)-6-fluoro-3-(((3-fluoropyridin-2-yl)methyl)amino)-4H-benzo[e][1,2,4]thiadiazine 1,1-dioxide] | < 100
O=S1(=O)N=C(NCc2ncccc2F)Nc2c1ccc(F)c2CCc1ccccc1Cl [Compound 11-1, 5-(2-chlorophenethyl)-6-fluoro-3-(((3-fluoropyridin-2-yl)methyl)amino)-4H-benzo[e][1,2,4]thiadiazine 1,1-dioxide] | 100 to 500
O=S1(=O)N=C(NCc2ccccc2)Nc2c1ccc(F)c2Oc1ccccc1Cl [Compound 1-49, 3-(benzylamino)-5-(2-chlorophenoxy)-6-fluoro-4H-benzo[e][1,2,4]thiadiazine 1,1-dioxide] | < 100
O=S1(=O)N=C(NCc2ncccc2Cl)Nc2c1ccc(F)c2Oc1ccccc1Cl [Compound 2-2, 5-(2-chlorophenoxy)-3-(((3-chloropyridin-2-yl)methyl)amino)-6-fluoro-4H-benzo[e][1,2,4]thiadiazine 1,1-dioxide] | < 100
C[C@H](c1ccccc1F)c1c(F)ccc2c1NC(NCc1ccc(F)cc1F)=NS2(=O)=O [Compound 24-2, (R)-3-((2,4-difluorobenzyl)amino)-6-fluoro-5-(1-(2-fluorophenyl)ethyl)-4H-benzo[e][1,2,4]thiadiazine 1,1-dioxide] | < 100
O=S1(=O)N=C(NCc2ncccc2F)Nc2c1ccc(Cl)c2Oc1ccccc1Cl [Compound 1-43, 6-chloro-5-(2-chlorophenoxy)-3-(((3-fluoropyridin-2-yl)methyl)amino)-4H-benzo[e][1,2,4]thiadiazine 1,1-dioxide] | < 100
O=S1(=O)N=C(NCc2ncccc2Cl)Nc2c(Cc3ccccc3Cl)cccc21 [Compound 12-3, 5-(2-chlorobenzyl)-3-(((3-chloropyridin-2-yl)methyl)amino)-4H-benzo[e][1,2,4]thiadiazine 1,1-dioxide] | < 100
CC(c1ccc(N(C)C)cc1)c1c(F)ccc2c1NC(NCc1cccc(F)c1)=NS2(=O)=O (centres unmarked) [Compound 22-13, 5-(1-(4-(dimethylamino)phenyl)ethyl)-6-fluoro-3-((3-fluorobenzyl)amino)-4H-benzo[e][1,2,4]thiadiazine 1,1-dioxide] | 100 to 500
O=S1(=O)N=C(NCc2ncccc2F)Nc2c(Cc3ccccc3Cl)cccc21 [Compound 12-2, 5-(2-chlorobenzyl)-3-(((3-fluoropyridin-2-yl)methyl)amino)-4H-benzo[e][1,2,4]thiadiazine 1,1-dioxide] | < 100
O=S1(=O)N=C(NCc2ccc(F)cc2Cl)Nc2c(Cc3ccccc3Cl)cccc21 [Compound 12-4, 3-((2-chloro-4-fluorobenzyl)amino)-5-(2-chlorobenzyl)-4H-benzo[e][1,2,4]thiadiazine 1,1-dioxide] | < 100
CC(c1ccccc1F)c1c(F)ccc2c1NC(NCc1ccccc1)=NS2(=O)=O (centres unmarked) [Compound 7-4, 3-(benzylamino)-6-fluoro-5-(1-(2-fluorophenyl)ethyl)-4H-benzo[e][1,2,4]thiadiazine 1,1-dioxide] | < 100
CC(c1cccc(OC(F)(F)F)c1)c1c(F)ccc2c1NC(NCc1cccc(F)c1)=NS2(=O)=O (centres unmarked) [Compound 22-14, 6-fluoro-3-((3-fluorobenzyl)amino)-5-(1-(3-(trifluoromethoxy)phenyl)ethyl)-4H-benzo[e][1,2,4]thiadiazine 1,1-dioxide] | 100 to 500
O=S1(=O)N=C(NCc2cccc(Cl)c2)Nc2c(Cc3ccccc3Cl)cccc21 [Compound 12-16, 5-(2-chlorobenzyl)-3-((3-chlorobenzyl)amino)-4H-benzo[e][1,2,4]thiadiazine 1,1-dioxide] | < 100
Cc1ccc2c(c1Oc1ccccc1Cl)NC(NCc1ncccc1F)=NS2(=O)=O [Compound 1-4, 5-(2-chlorophenoxy)-3-(((3-fluoropyridin-2-yl)methyl)amino)-6-methyl-4H-benzo[e][1,2,4]thiadiazine 1,1-dioxide] | < 100

SMILES | IC50 [nM]
COc1ccc(Cc2cccc3c2NC(NCc2ccccc2F)=NS3(=O)=O)cc1 [Compound 6-15, 3-((2-fluorobenzyl)amino)-5-(4-methoxybenzyl)-4H-benzo[e][1,2,4]thiadiazine 1,1-dioxide] | 100 to 500
Cc1c(F)cccc1CNC1=NS(=O)(=O)c2ccc(F)c(C(C)c3ccccc3F)c2N1 (centres unmarked) [Compound 9-6, 6-fluoro-3-((3-fluoro-2-methylbenzyl)amino)-5-(1-(2-fluorophenyl)ethyl)-4H-benzo[e][1,2,4]thiadiazine 1,1-dioxide] | < 100
O=S1(=O)N=C(NCc2ncccc2F)Nc2c(/C=C/c3ccccc3F)cccc21 [Compound 14-3, (E)-3-(((3-fluoropyridin-2-yl)methyl)amino)-5-(2-fluorostyryl)-4H-benzo[e][1,2,4]thiadiazine 1,1-dioxide] | < 100
CC(c1ccccc1F)c1c(F)ccc2c1NC(NCc1cc(F)ccc1F)=NS2(=O)=O (centres unmarked) [Compound 9-3, 3-((2,5-difluorobenzyl)amino)-6-fluoro-5-(1-(2-fluorophenyl)ethyl)-4H-benzo[e][1,2,4]thiadiazine 1,1-dioxide] | < 100
O=S1(=O)N=C(NCc2cccc(F)c2)Nc2c1cc(F)c(F)c2Cc1ccccc1Cl [Compound 4-12, 5-(2-chlorobenzyl)-6,7-difluoro-3-((3-fluorobenzyl)amino)-4H-benzo[e][1,2,4]thiadiazine 1,1-dioxide] | 100 to 500
O=S1(=O)N=C(NCc2ncccc2F)Nc2c1ccc(F)c2Oc1ccccc1-c1ccccc1 [Compound 1-35, 5-([1,1′-biphenyl]-2-yloxy)-6-fluoro-3-(((3-fluoropyridin-2-yl)methyl)amino)-4H-benzo[e][1,2,4]thiadiazine 1,1-dioxide] | 1000 to 2500
Cc1ccccc1C(C)c1c(F)ccc2c1NC(NCc1cccc(F)c1)=NS2(=O)=O (centres unmarked) [Compound 22-2, 6-fluoro-3-((3-fluorobenzyl)amino)-5-(1-(o-tolyl)ethyl)-4H-benzo[e][1,2,4]thiadiazine 1,1-dioxide] | < 100
Cc1ccccc1CNC1=NS(=O)(=O)c2cccc(Cc3ccccc3Cl)c2N1 [Compound 12-19, 5-(2-chlorobenzyl)-3-((2-methylbenzyl)amino)-4H-benzo[e][1,2,4]thiadiazine 1,1-dioxide] | < 100
N#Cc1cccc(Oc2c(F)ccc3c2NC(NCc2ncccc2F)=NS3(=O)=O)c1 [Compound 2-13, 3-((6-fluoro-3-(((3-fluoropyridin-2-yl)methyl)amino)-1,1-dioxido-4H-benzo[e][1,2,4]thiadiazin-5-yl)oxy)benzonitrile] | 501 to 1000
O=S1(=O)N=C(NCc2cnccc2C(F)(F)F)Nc2c1cc(F)c(F)c2Cc1ccccc1Cl [Compound 4-17, 5-(2-chlorobenzyl)-6,7-difluoro-3-(((4-(trifluoromethyl)pyridin-3-yl)methyl)amino)-4H-benzo[e][1,2,4]thiadiazine 1,1-dioxide] | 100 to 500
C[C@@H](NC1=NS(=O)(=O)c2ccc(F)c(Oc3ccccc3Cl)c2N1)c1ccccc1F [Compound 2-3, (R)-5-(2-chlorophenoxy)-6-fluoro-3-((1-(2-fluorophenyl)ethyl)amino)-4H-benzo[e][1,2,4]thiadiazine 1,1-dioxide] | > 2500
O=S1(=O)N=C(NCc2cccnc2Cl)Nc2c(Cc3ccccc3Cl)cccc21 [Compound 12-18, 5-(2-chlorobenzyl)-3-(((2-chloropyridin-3-yl)methyl)amino)-4H-benzo[e][1,2,4]thiadiazine 1,1-dioxide] | < 100
COc1cc(C)ccc1CNC1=NS(=O)(=O)c2cccc(Cc3ccccc3Cl)c2N1 [Compound 12-15, 5-(2-chlorobenzyl)-3-((2-methoxy-4-methylbenzyl)amino)-4H-benzo[e][1,2,4]thiadiazine 1,1-dioxide] | 100 to 500
O=S1(=O)N=C(NCc2ccc(F)cc2F)Nc2c1cc(F)c(F)c2Cc1ccccc1Cl [Compound 4-8, 5-(2-chlorobenzyl)-3-((2,4-difluorobenzyl)amino)-6,7-difluoro-4H-benzo[e][1,2,4]thiadiazine 1,1-dioxide] | 100 to 500
O=S1(=O)N=C(NCc2ccc(F)cc2F)Nc2c(Cc3ccccc3Cl)cccc21 [Compound 12-11, 5-(2-chlorobenzyl)-3-((2,4-difluorobenzyl)amino)-4H-benzo[e][1,2,4]thiadiazine 1,1-dioxide] | < 100
O=S1(=O)N=C(NCc2ncccc2F)Nc2c1ccc(F)c2Oc1cccc(F)c1Cl [Compound 1-19, 5-(2-chloro-3-fluorophenoxy)-6-fluoro-3-(((3-fluoropyridin-2-yl)methyl)amino)-4H-benzo[e][1,2,4]thiadiazine 1,1-dioxide] | < 100
